Data taken from US11344546B2, “Benzamide compounds” (Recurium IP Holdings, LLC, priority 2018, dated 2022).

Legend:
NCI-H1963 cells = assay: NCI-H1963 cell proliferation assay (CellTiter-Glo); format: cell-based; details: Homo sapiens, 72 h compound treatment, read-out: H1963 (nM) CTG IC50
Description: (§1) Cell proliferation was measured using the CellTiter-Glo@ Luminescent Cell Viability Assay. The assay involved the addition of a single reagent (CellTiter-Glo® Reagent) directly to cells cultured in serum-supplemented medium. RS4;11 (ATC, CRL-1873) cells were cultured according to ATCC recommendations and were seeded at 50,000 cells per well. NCI-H1963 cells (ATCC CRL-5982) were cultured according to ATCC recommendations and seeded at 12,000 cells per well.
(§2) Each compound evaluated was prepared as a DMSO stock solution (10 mM). Compounds were tested in duplicate on each plate, with a 10-point serial dilution curve (1:3 dilution). Compound treatment (1.0 μL) was added from the compound dilution plate to the cell plate. The highest compound concentration was 10 μM (final), with a 0.1% final DMSO concentration. Plates were then incubated at 37° C., 5% CO2. After 48 h of compound treatment for RS4;11 or 72 h for NCI-H1963, cell plates were equilibrated at rt for approximately 30 mins. An equi-volume amount of CellTiter-Glo@ Reagent (40 μL) was added to each well. Plates were mixed for 2 mins on an orbital shaker to induce cell lysis and then incubated at RT for 10 mins to stabilize the luminescent signal. Luminescence was recorded using a Envision plate reader according to CellTiter-Glo protocol. IC50 of each compound was calculated using GraphPad Prism by nonlinear regression analysis.

RS4;11 cells = assay: RS4;11 cell proliferation assay (CellTiter-Glo); format: cell-based; details: Homo sapiens, 48 h compound treatment, read-out: RS4;11 (nM) CTG IC50
Description: as §1, §2

Row | SMILES | IC50 (NCI-H1963 cells) [nM] | IC50 (RS4;11 cells) [nM]
1 | CC1(C)CCC(C23CC(C(F)F)(C2)C3)=C(CN2CCN(c3ccc(C(=O)NS(=O)(=O)c4ccc(N[C@H](CCN5CCC(O)CC5)CSc5ccccc5)c(S(=O)(=O)C(F)(F)F)c4)cc3)CC2)C1 [Example 65, (R)-4-(4-((2-(3-(difluoromethyl)bicyclo[1.1.1]pentan-1-yl)-5,5-dimethylcyclohex-1-en-1-yl)methyl)piperazin-1-yl)-N-((4-((4-(4-hydroxypiperidin-1-yl)-1-(phenylthio)butan-2-yl)amino)-3-((trifluoromethyl)sulfonyl)phenyl)sulfonyl)benzamide] | 500 to 1000 | –
2 | CCC12CC(C3=C(CN4CCN(c5ccc(C(=O)NS(=O)(=O)c6ccc(N[C@H](CCN7CCOCC7)CSc7ccccc7)c([N+](=O)[O-])c6)cc5)CC4)CCC(C)(C)C3)(C1)C2 [Example 57, (R)-4-(4-((2-(3-ethylbicyclo[1.1.1]pentan-1-yl)-4,4-dimethylcyclohex-1-en-1-yl)methyl)piperazin-1-yl)-N-((4-((4-morpholino-1-(phenylthio)butan-2-yl)amino)-3-nitrophenyl)sulfonyl)benzamide] | > 1000 | > 1000
3 | CC1(C)CCC(CN2CCN(c3ccc(C(=O)NS(=O)(=O)c4ccc(N[C@H](CCN5CCC(O)C5)CSc5ccccc5)c(S(=O)(=O)C(F)(F)F)c4)cc3)CC2)=C(C23CC(C(F)F)(C2)C3)C1 (stereo partly drawn) [Example 71] | 500 to 1000 | –
4 | CC1(C)CCC(c2ccc(Cl)cc2)=C(CN2CCN(c3ccc(C(=O)NS(=O)(=O)c4ccc(N[C@H](CCN5CCOCC5)CSc5ccccc5)c(S(=O)(=O)C(F)(F)F)c4)cc3)CC2)C1 [ABT-263, reference compound] | ≤ 500 | < 100
5 | CC1(C)CCC(CN2CCN(c3ccc(C(=O)NS(=O)(=O)c4ccc(NCC5CCOCC5)c([N+](=O)[O-])c4)c(Oc4cnc5[nH]ccc5c4)c3)CC2)=C(c2ccc(Cl)cc2)C1 [ABT-199, reference compound] | > 1000 | < 100
6 | CC1(C)CCC(CN2CCN(c3ccc(C(=O)NS(=O)(=O)c4ccc(N[C@H](CCN5CCOCC5)CSc5ccccc5)c(S(=O)(=O)C(F)(F)F)c4)cc3)CC2)=C(C23CC(C)(C2)C3)C1 [Example 52, (R)-4-(4-((4,4-Dimethyl-2-(3-methylbicyclo[1.1.1]pentan-1-yl)cyclohex-1-en-1-yl)methyl)piperazin-1-yl)-N-((4-((4-morpholino-1-(phenylthio)butan-2-yl)amino)-3-((trifluoromethyl)sulfonyl)phenyl)sulfonyl)benzamide] | – | 100 to 1000
7 | CCC12CC(C3=C(CN4CCN(c5ccc(C(=O)NS(=O)(=O)c6ccc(NCC7(F)CCN(C)CC7)c([N+](=O)[O-])c6)c(Oc6cnc7[nH]ccc7c6)c5)CC4)CCC(C)(C)C3)(C1)C2 [Example 24, 2-(1H-pyrrolo[2,3-b]pyridin-5-yloxy)-4-(4-((2-(3-ethylbicyclo[1.1.1]pentan-1l-yl)-4,4-dimethylcyclohex-1l-enyl)methyl)piperazin-1-yl)-N-(4-((4-fluoro-1l-methylpiperidin-4-yl)methylamino)-3-nitrophenylsulfonyl)benzamide] | – | < 100
8 | CC1(C)CCC(CN2CCN(c3ccc(C(=O)NS(=O)(=O)c4ccc(N[C@H](CCN5CCOCC5)CSc5ccccc5)c([N+](=O)[O-])c4)cc3)CC2)=C(C23CC(C)(C2)C3)C1 [Example 56, (R)-4-(4-((4,4-dimethyl-2-(3-methylbicyclo[1.1.1]pentan-1-yl)cyclohex-1-en-1-yl)methyl)piperazin-1-yl)-N-((4-((4-morpholino-1-(phenylthio)butan-2-yl)amino)-3-nitrophenyl)sulfonyl)benzamide] | 500 to 1000 | > 1000
9 | CC1(C)CCC(C23CC(Cl)(C2)C3)=C(CN2CCN(c3ccc(C(=O)NS(=O)(=O)c4ccc(N[C@H](CCN5CCOCC5)CSc5ccccc5)c(S(=O)(=O)C(F)(F)F)c4)cc3)CC2)C1 [Example 45, (R)-4-(4-((2-(3-Chlorobicyclo[1.1.1]pentan-1-yl)-5,5-dimethylcyclohex-1-en-1-yl)methyl)piperazin-1-yl)-N-((4-((4-morpholino-1-(phenylthio)butan-2-yl)amino)-3-((trifluoromethyl)sulfonyl)phenyl)sulfonyl)benzamide] | – | > 1000
10 | CC1(C)CCC(CN2CCN(c3ccc(C(=O)NS(=O)(=O)c4ccc(N[C@H](CCN5CCC(O)CC5)CSc5ccccc5)c(S(=O)(=O)C(F)(F)F)c4)cc3)CC2)=C(C23CC(C)(C2)C3)C1 [Example 68, (R)-4-(4-((4,4-dimethyl-2-(3-methylbicyclo[1.1.1]pentan-1-yl)cyclohex-1-en-1-yl)methyl)piperazin-1-yl)-N-((4-((4-(4-hydroxypiperidin-1-yl)-1-(phenylthio)butan-2-yl)amino)-3-((trifluoromethyl)sulfonyl)phenyl)sulfonyl)benzamide] | ≤ 500 | 100 to 1000
11 | CC1(C)CCC(CN2CCN(c3ccc(C(=O)NS(=O)(=O)c4ccc(NCC5CC6(CCOCC6)C5)c([N+](=O)[O-])c4)c(Oc4cnc5[nH]ccc5c4)c3)CC2)=C(C23CC(C(F)F)(C2)C3)C1 [Example 37, 2-((1H-pyrrolo[2,3-b]pyridin-5-yl)oxy)-N-((4-(((7-oxaspiro[3.5]nonan-2-yl)methyl)amino)-3-nitrophenyl)sulfonyl)-4-(4-((2-(3-(difluoromethyl)bicyclo[1.1.1]pentan-1-yl)-4,4-dimethylcyclohex-1-en-1-yl)methyl)piperazin-1-yl)benzamide] | – | < 100
12 | CC1(C)CCC(CN2CCN(c3ccc(C(=O)NS(=O)(=O)c4ccc(N[C@H](CCN5CCOCC5)CSc5ccccc5)c(S(=O)(=O)C(F)(F)F)c4)cc3)CC2)=C(C23CC(C(F)(F)F)(C2)C3)C1 [Example 54, (R)-4-(4-((4,4-dimethyl-2-(3-(trifluoromethyl)bicyclo[1.1.1]pentan-1-yl)cyclohex-1-en-1-yl)methyl)piperazin-1-yl)-N-((4-((4-morpholino-1-(phenylthio)butan-2-yl)amino)-3-((trifluoromethyl)sulfonyl)phenyl)sulfonyl)benzamide] | – | > 1000
13 | CC1(C)CCC(CN2CCN(c3ccc(C(=O)NS(=O)(=O)c4ccc(OCCN5CC6(COC6)C5)c([N+](=O)[O-])c4)c(Oc4cnc5[nH]ccc5c4)c3)CC2)=C(C23CC(Cl)(C2)C3)C1 [Example 7, 2-(1H-pyrrolo[2,3-b]pyridin-5-yloxy)-N-(4-(2-(2-oxa-6-azaspiro[3.3]heptan-6-yl)ethoxy)-3-nitrophenylsulfonyl)-4-(4-((2-(3-chlorobicyclo[0.1.1]pentan-1-yl)-4,4-dimethylcyclohex-1-enyl)methyl)piperazin-1-yl)benzamide] | – | > 1000
